Measurements as given in patent US20250205264A1, “METHODS OF USING AVERMECTIN COMPOSITIONS FOR THE TREATMENT OF SPASTICITY AND DOSING REGIMENS” (priority 2022, published 2025).

How the values were obtained:
[1] = Excipient compatibility study at 40° C./75% RH (HPLC Assay/Related Substances); format: physicochemical; settings: for Chromatographic purity by HPLC (% area) / Total Impurities % (% adjusted area): 40° C./75% RH; for Total Impurities % (% adjusted area): excluding API impurities
Method: An excipient compatibility study was initiated with selected excipients ranging from oils to surfactants based on equilibrium solubility results (Table 2). […] After solutions were prepared using a hand-held homogenizer (Model IKAT10 Ultra-Turrax), each excipient sample was aliquoted in amber vials, approximately 10% water was added in each excipient aliquot, and bench scale gel stripe OET-004037 was also made and added in a separate set of aliquot samples at approximately 1:1 w/w.
All samples were stored at 40° C./75% relative humidity (RH) condition (Model: Lunaire environmental chamber) and tested by developmental reversed phase HPLC method for Assay/Related Substances at T=0, 2 weeks, and 1 month.

[2] = Ivermectin solubility determination in excipients
Method: The solubility assessments were performed by continually adding a known amount of the API into each individual excipient and letting the excipient reach solubility equilibrium via API saturation (visible solid observed). The experiments were conducted at ambient conditions (25° C.) and were left to mix on a stir plate at 500 RPM for at least 72 hours.

[3] = Pharmacokinetics of Ivermectin B1a in SD rat plasma after IV or oral administration; settings: 2 mg/kg, fasting, male
Method: Thirty-six male Sprague Dawley rats were randomly assigned into four groups, with nine male rats in each group. All animals in all groups are fasted overnight prior to the experimental date.
Blood samples were collected from 6 of 9 animals per group at 0.5, 1, 2, 3, 4, 6, 8, 24, 72, 120, 168 hours post-dose.

[4] = in Fractionated coconut oil, 10% water, T = 2 weeks
[5] = in Fractionated coconut oil, Control, T = 0
[6] = in Fractionated coconut oil, Control, T = 2 weeks
[7] = in Fractionated coconut oil, Gel Stripe (1:1 w/w), T = 2 weeks
[8] = in Labrasol ALF, 10% water, T = 1 months
[9] = in Labrasol ALF, 10% water, T = 2 weeks
[10] = in Labrasol ALF, Control, T = 0
[11] = in Labrasol ALF, Control, T = 1 months
[12] = in Labrasol ALF, Control, T = 2 weeks
[13] = in Labrasol ALF, Gel Stripe (1:1 w/w), T = 1 months
[14] = in Labrasol ALF, Gel Stripe (1:1 w/w), T = 2 weeks
[15] = in Maisine CC, 10% water, T = 1 months
[16] = in Maisine CC, 10% water, T = 2 weeks
[17] = in Maisine CC, Control, T = 1 months
[18] = in Maisine CC, Control, T = 2 weeks
[19] = in Maisine CC, Gel Stripe (1:1 w/w), T = 1 months
[20] = in Maisine CC, Gel Stripe (1:1 w/w), T = 2 weeks
[21] = in Masester E8120, 10% water, T = 1 months
[22] = in Masester E8120, 10% water, T = 2 weeks
[23] = in Masester E8120, Control, T = 0
[24] = in Masester E8120, Control, T = 1 months
[25] = in Masester E8120, Control, T = 2 weeks
[26] = in Masester E8120, Gel Stripe (1:1 w/w), T = 1 months
[27] = in Masester E8120, Gel Stripe (1:1 w/w), T = 2 weeks
[28] = in Oleic acid, 10% water, T = 2 weeks
[29] = in Oleic acid, Control, T = 2 weeks
[30] = in Oleic acid, Gel Stripe (1:1 w/w), T = 2 weeks
[31] = in PEG 400, 10% water, T = 2 weeks
[32] = in PEG 400, Control, T = 2 weeks
[33] = in PEG 400, Gel Stripe (1:1 w/w), T = 2 weeks
[34] = in Tween 80, 10% water, T = 1 months
[35] = in Tween 80, 10% water, T = 2 weeks
[36] = in Tween 80, Control, T = 1 months
[37] = in Tween 80, Control, T = 2 weeks
[38] = in Tween 80, Gel Stripe (1:1 w/w), T = 1 months
[39] = in Tween 80, Gel Stripe (1:1 w/w), T = 2 weeks
[40] = in Vitamin E TPGS, 10% water, T = 1 months
[41] = in Vitamin E TPGS, 10% water, T = 2 weeks
[42] = in Vitamin E TPGS, Control, T = 0
[43] = in Vitamin E TPGS, Control, T = 1 months
[44] = in Vitamin E TPGS, Control, T = 2 weeks
[45] = in Vitamin E TPGS, Gel Stripe (1:1 w/w), T = 1 months
[46] = in Vitamin E TPGS, Gel Stripe (1:1 w/w), T = 2 weeks

ivermectin
chemical compatibility with the API ([1]; PEG 400 as co-solvent): poor chemical compatibility | chemical compatibility with the API ([1]; Tween 80): less stability over time | chemical compatibility with the API ([1]; Vitamin E TPGS, compared with Tween 80 and Labrasol ALF): best chemical compatibility | Chromatographic purity by HPLC (% area) [1, 4]: 97.83 % area | Total Impurities % (% adjusted area) [1, 4]: <LOQ | Chromatographic purity by HPLC (% area) [1, 5]: 95.61 % area | Total Impurities % (% adjusted area) [1, 5]: <LOQ | Chromatographic purity by HPLC (% area) [1, 6]: 97.94 % area | Total Impurities % (% adjusted area) [1, 6]: <LOQ | Chromatographic purity by HPLC (% area) [1, 7]: 94.42 % area | Total Impurities % (% adjusted area) [1, 7]: 3.28 % adjusted area | Chromatographic purity by HPLC (% area) [1, 8]: 89.91 % area | Total Impurities % (% adjusted area) [1, 8]: 8.76 % adjusted area | Chromatographic purity by HPLC (% area) [1, 9]: 93.91 % area | Total Impurities % (% adjusted area) [1, 9]: 3.46 % adjusted area | Chromatographic purity by HPLC (% area) [1, 10]: 97.74 % area | Total Impurities % (% adjusted area) [1, 10]: <LOQ | Chromatographic purity by HPLC (% area) [1, 11]: 81.35 % area | Total Impurities % (% adjusted area) [1, 11]: 20.49 % adjusted area | Chromatographic purity by HPLC (% area) [1, 12]: 89.16 % area | Total Impurities % (% adjusted area) [1, 12]: 8.67 % adjusted area | Chromatographic purity by HPLC (% area) [1, 13]: 96.49 % area | Total Impurities % (% adjusted area) [1, 13]: 1.06 % adjusted area | Chromatographic purity by HPLC (% area) [1, 14]: 97.11 % area | Total Impurities % (% adjusted area) [1, 14]: 0.30 % adjusted area | Chromatographic purity by HPLC (% area) [1, 15]: 96.83 % area | Total Impurities % (% adjusted area) [1, 15]: 0.69 % adjusted area | Chromatographic purity by HPLC (% area) [1, 16]: 95.90 % area | Total Impurities % (% adjusted area) [1, 16]: 0.45 % adjusted area | Chromatographic purity by HPLC (% area) ([1]; in Maisine CC, Control, T = 0): 97.13 % area | Total Impurities % (% adjusted area) ([1]; in Maisine CC, Control, T = 0): 0.58 % adjusted area | Chromatographic purity by HPLC (% area) [1, 17]: 96.82 % area | Total Impurities % (% adjusted area) [1, 17]: 0.71 % adjusted area | Chromatographic purity by HPLC (% area) [1, 18]: 96.00 % area | Total Impurities % (% adjusted area) [1, 18]: 0.35 % adjusted area | Chromatographic purity by HPLC (% area) [1, 19]: 96.94 % area | Total Impurities % (% adjusted area) [1, 19]: 0.58 % adjusted area | Chromatographic purity by HPLC (% area) [1, 20]: 96.15 % area | Total Impurities % (% adjusted area) [1, 20]: 0.33 % adjusted area | Chromatographic purity by HPLC (% area) [1, 21]: 91.68 % area | Total Impurities % (% adjusted area) [1, 21]: 6.60 % adjusted area | Chromatographic purity by HPLC (% area) [1, 22]: 95.11 % area | Total Impurities % (% adjusted area) [1, 22]: 2.27 % adjusted area | Chromatographic purity by HPLC (% area) [1, 23]: 97.58 % area | Total Impurities % (% adjusted area) [1, 23]: 0.17 % adjusted area | Chromatographic purity by HPLC (% area) [1, 24]: 97.06 % area | Total Impurities % (% adjusted area) [1, 24]: 0.45 % adjusted area | Chromatographic purity by HPLC (% area) [1, 25]: 96.81 % area | Total Impurities % (% adjusted area) [1, 25]: 0.58 % adjusted area | Chromatographic purity by HPLC (% area) [1, 26]: 97.31 % area | Total Impurities % (% adjusted area) [1, 26]: 0.18 % adjusted area | Chromatographic purity by HPLC (% area) [1, 27]: 97.35 % area | Total Impurities % (% adjusted area) [1, 27]: 0.11 % adjusted area | Chromatographic purity by HPLC (% area) [1, 28]: 86.02 % area | Total Impurities % (% adjusted area) [1, 28]: 9.89 % adjusted area | Chromatographic purity by HPLC (% area) ([1]; in Oleic acid, Control, T = 0): 99.60 % area | Total Impurities % (% adjusted area) ([1]; in Oleic acid, Control, T = 0): <LOQ | Chromatographic purity by HPLC (% area) [1, 29]: 83.55 % area | Total Impurities % (% adjusted area) [1, 29]: 17.27 % adjusted area | Chromatographic purity by HPLC (% area) [1, 30]: 83.73 % area | Total Impurities % (% adjusted area) [1, 30]: 11.82 % adjusted area | Chromatographic purity by HPLC (% area) [1, 31]: 94.35 % area | Total Impurities % (% adjusted area) [1, 31]: 3.15 % adjusted area | Chromatographic purity by HPLC (% area) ([1]; in PEG 400, Control, T = 0): 97.58 % area | Total Impurities % (% adjusted area) ([1]; in PEG 400, Control, T = 0): 0.10 % adjusted area | Chromatographic purity by HPLC (% area) [1, 32]: 89.36 % area | Total Impurities % (% adjusted area) [1, 32]: 8.54 % adjusted area | Chromatographic purity by HPLC (% area) [1, 33]: 96.92 % area | Total Impurities % (% adjusted area) [1, 33]: 0.50 % adjusted area | Chromatographic purity by HPLC (% area) [1, 34]: 91.18 % area | Total Impurities % (% adjusted area) [1, 34]: 6.94 % adjusted area | Chromatographic purity by HPLC (% area) [1, 35]: 93.02 % area | Total Impurities % (% adjusted area) [1, 35]: 3.53 % adjusted area | Chromatographic purity by HPLC (% area) ([1]; in Tween 80, Control, T = 0): 97.53 % area | Total Impurities % (% adjusted area) ([1]; in Tween 80, Control, T = 0): 0.16 % adjusted area | Chromatographic purity by HPLC (% area) [1, 36]: 88.45 % area | Total Impurities % (% adjusted area) [1, 36]: 10.55 % adjusted area | Chromatographic purity by HPLC (% area) [1, 37]: 91.87 % area | Total Impurities % (% adjusted area) [1, 37]: 4.86 % adjusted area | Chromatographic purity by HPLC (% area) [1, 38]: 93.51 % area | Total Impurities % (% adjusted area) [1, 38]: 4.22 % adjusted area | Chromatographic purity by HPLC (% area) [1, 39]: 93.97 % area | Total Impurities % (% adjusted area) [1, 39]: 2.43 % adjusted area | Chromatographic purity by HPLC (% area) [1, 40]: 97.46 % area | Total Impurities % (% adjusted area) [1, 40]: <LOQ | Chromatographic purity by HPLC (% area) [1, 41]: 96.99 % area | Total Impurities % (% adjusted area) [1, 41]: 0.42 % adjusted area | Chromatographic purity by HPLC (% area) [1, 42]: 97.74 % area | Total Impurities % (% adjusted area) [1, 42]: <LOQ | Chromatographic purity by HPLC (% area) [1, 43]: 97.37 % area | Total Impurities % (% adjusted area) [1, 43]: 0.11 % adjusted area | Chromatographic purity by HPLC (% area) [1, 44]: 97.43 % area | Total Impurities % (% adjusted area) [1, 44]: <LOQ | Chromatographic purity by HPLC (% area) [1, 45]: 97.74 % area | Total Impurities % (% adjusted area) [1, 45]: <LOQ | Chromatographic purity by HPLC (% area) [1, 46]: 97.50 % area | Total Impurities % (% adjusted area) [1, 46]: <LOQ | chemical compatibility with the API ([1]; oily vehicles Maisine CC, fractionated coconut oil, and oleic acid): good chemical compatibility | Solubility ([2]; in Capryol 90, 25° C.): 150.92 mg/g | Solubility ([2]; in Fractionated Coconut oil, 25° C.): 16.55 mg/g | Solubility ([2]; in Glycerin, 25° C.): <0.1 mg/g | Solubility ([2]; in Kolliphor EL, 25° C.): 95.85 mg/g | Solubility ([2]; in Labrafil M 2125 CS, 25° C.): 35.32 mg/g | Solubility ([2]; in Labrasol ALF, 25° C.): 126.36 mg/g | Solubility ([2]; in LauroglycolTM FCC, 25° C.): 71.96 mg/g | Solubility ([2]; in Maisine CC, 25° C.): 60.17 mg/g | Solubility ([2]; in Masester E8120, 25° C.): 164.06 mg/g | Solubility ([2]; in Medium Chain Triglyceride, 25° C.): 16.49 mg/g | Solubility ([2]; in Oleic acid, 25° C.): 48.58 mg/g | Solubility ([2]; in Olive oil, 25° C.): 4.71 mg/g | Solubility ([2]; in PEG 400, 25° C.): 112.92 mg/g | Solubility ([2]; in Propylene glycol, 25° C.): 25.61 mg/g | Solubility ([2]; in Soybean oil, 25° C.): 6.72 mg/g | Solubility ([2]; in Span 20, 25° C.): 97.66 mg/g | Solubility ([2]; in Span 80, 25° C.): 54.04 mg/g | Solubility ([2]; in Triacetin, 25° C.): 58.75 mg/g | Solubility ([2]; in Tween 80, 25° C.): 88.26 mg/g | Solubility ([2]; in Vitamin E TPGS, table title 25° C., text b171: conducted at 40° C.): 82.98 mg/g | AUC(0-t) [3]: 8259.31 ± 1032.95 ng·h/mL | AUC(0-∞) [3]: 8273.53 ng·h/mL | Cmax [3]: 1722.67 ng/mL | MRT(0-t) [3]: 10.58 h | MRT(0-∞) [3]: 10.81 h | T1/2 [3]: 14.82 ± 0.72 h | Tmax [3]: 0.50 h
